Assays:
Format in all cases: in vivo
[1] = tested on: upland rice (Oryza sp., var. Tebonnet, RICE); assay: Post-emerge test, crop safety; details: phytotoxicity rating 0-100 (0 no damage, 100 complete death), 14 days after application
How it was run: (§1)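 Fourteen days after spraying, crop and weed injury was graded visually from 0, no effect, to 100, every plant dead. Test substances were dissolved in acetone and applied at 15–1000 g ai/ha with a flat-fan nozzle. Application was either pre-emergence, one day after sowing, or post-emergence at the 2–3 leaf stage.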

[2] = tested on: field corn (Zea mays L., var. Dekalb 535, CORN); assay: Post-emerge test, crop safety; details: phytotoxicity rating 0-100 (0 no damage, 100 complete death), 14 days after application
How it was run: as §1

[3] = tested on: large crabgrass (Digitaria sanguinalis, DIGSA); assay: Post-emerge test, greenhouse herbicide activity screening; details: phytotoxicity rating 0-100 (0 no damage, 100 complete death), 14 days after application
How it was run: (§2)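 Herbicidal damage is scored 0 (none) to 100 (complete plant death) two weeks after a simulated field spray. Rates span 15–1000 g ai/ha, delivered in acetone at 187 l/ha. For post-emergence treatments, plants have 2–3 leaves and the spray carries 0.25% v/v non-ionic surfactant.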

[4] = tested on: ivyleaf morningglory (Ipomoea hederacea, IPOHE); assay: as above; details: phytotoxicity rating 0-100 (0 no damage, 100 complete death), 14 days after application
How it was run: as §2

[5] = tested on: green foxtail (Setaria viridis, SETVI); assay: as above; details: phytotoxicity rating 0-100 (0 no damage, 100 complete death), 14 days after application
How it was run: as §2

[6] = tested on: barnyardgrass (Echinochloa crus-galli, ECHCG); assay: as above; details: phytotoxicity rating 0-100 (0 no damage, 100 complete death), 14 days after application
How it was run: as §2

[7] = tested on: redroot pigweed (Amaranthus retroflexus, AMARE); assay: as above; details: phytotoxicity rating 0-100 (0 no damage, 100 complete death), 14 days after application
How it was run: as §2

[8] = tested on: velvetleaf (Abutilon theophrasti, ABUTH); assay: as above; details: phytotoxicity rating 0-100 (0 no damage, 100 complete death), 14 days after application
How it was run: as §2

[9] = tested on: sicklepod (Cassia obtusifolia, CASOB); assay: as above; details: phytotoxicity rating 0-100 (0 no damage, 100 complete death), 14 days after application
How it was run: as §2

[10] = tested on: lambsquarters (Chenopodium album, CHEAL); assay: as above; details: phytotoxicity rating 0-100 (0 no damage, 100 complete death), 14 days after application
How it was run: as §2

[11] = tested on: common ragweed (Ambrosia artemisizfolia L., AMBEL); assay: as above; details: phytotoxicity rating 0-100 (0 no damage, 100 complete death), 14 days after application
How it was run: as §2

[12] = tested on: johnsongrass (Sorghum halepense, SORHA); assay: as above; details: phytotoxicity rating 0-100 (0 no damage, 100 complete death), 14 days after application
How it was run: as §2

[13] = tested on: upland rice (Oryza sp., var. Tebonnet, RICE); assay: Pre-emerge test, crop safety; details: pre-emerge, rated 14 days after application, 0 = no damage, 100 = complete death
How it was run: as §1

[14] = tested on: field corn (Zea mays L., var. Dekalb 535, CORN); assay: Pre-emerge test, crop safety; details: pre-emerge, rated 14 days after application, 0 = no damage, 100 = complete death
How it was run: as §1

[15] = tested on: redroot pigweed (Amaranthus retroflexus, AMARE); assay: Pre-emerge test, greenhouse herbicide activity screening; details: pre-emerge, rated 14 days after application, 0 = no damage, 100 = complete death
How it was run: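 Compounds in acetone were track-sprayed at 187 l/ha, 15–1000 g ai/ha, onto sandy loam pots. Pre-emerge seeds were sown one day before spraying, with surface watering afterwards. Post-emerge plants were at the 2–3 leaf stage and sprayed with 0.25% v/v non-ionic surfactant. Injury was rated 0–100 at 14 days.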

[16] = tested on: large crabgrass (Digitaria sanguinalis, DIGSA); assay: as above; details: pre-emerge, rated 14 days after application, 0 = no damage, 100 = complete death
How it was run: as §1

[17] = tested on: ivyleaf morningglory (Ipomoea hederacea, IPOHE); assay: as above; details: pre-emerge, rated 14 days after application, 0 = no damage, 100 = complete death
How it was run: as §1

[18] = tested on: green foxtail (Setaria viridis, SETVI); assay: as above; details: pre-emerge, rated 14 days after application, 0 = no damage, 100 = complete death
How it was run: as §1

[19] = tested on: barnyardgrass (Echinochloa crus-galli, ECHCG); assay: as above; details: pre-emerge, rated 14 days after application, 0 = no damage, 100 = complete death
How it was run: as §1

[20] = tested on: velvetleaf (Abutilon theophrasti, ABUTH); assay: as above; details: pre-emerge, rated 14 days after application, 0 = no damage, 100 = complete death
How it was run: as §1

[21] = tested on: sicklepod (Cassia obtusifolia, CASOB); assay: as above; details: pre-emerge, rated 14 days after application, 0 = no damage, 100 = complete death
How it was run: as §1

[22] = tested on: lambsquarters (Chenopodium album, CHEAL); assay: as above; details: pre-emerge, rated 14 days after application, 0 = no damage, 100 = complete death
How it was run: as §1

[23] = tested on: common ragweed (Ambrosia artemisizfolia L., AMBEL); assay: as above; details: pre-emerge, rated 14 days after application, 0 = no damage, 100 = complete death
How it was run: as §1

[24] = tested on: johnsongrass (Sorghum halepense, SORHA); assay: as above; details: pre-emerge, rated 14 days after application, 0 = no damage, 100 = complete death
How it was run: as §1

COc1c(Cl)cc(F)c(-n2c(=O)cc(C(F)(F)F)n(C)c2=O)c1NC(=O)c1ccc(C)cc1 [2-24]
Post-emerge Herbicidal Activity RICE (crop damage) ([1]; 63 g ai/ha): 70
Post-emerge Herbicidal Activity RICE (crop damage) ([1]; 250 g ai/ha): 90
Post-emerge Herbicidal Activity CORN (crop damage) ([2]; 63 g ai/ha): 70
Post-emerge Herbicidal Activity CORN (crop damage) ([2]; 250 g ai/ha): 95
Post-emerge Herbicidal Activity DIGSA ([3]; 63 g ai/ha): 10
Post-emerge Herbicidal Activity DIGSA ([3]; 250 g ai/ha): 50
Post-emerge Herbicidal Activity IPOHE ([4]; 63 g ai/ha): 100
Post-emerge Herbicidal Activity IPOHE ([4]; 250 g ai/ha): 100
Post-emerge Herbicidal Activity SETVI ([5]; 63 g ai/ha): 20
Post-emerge Herbicidal Activity SETVI ([5]; 250 g ai/ha): 70
Post-emerge Herbicidal Activity ECHCG ([6]; 63 g ai/ha): 70
Post-emerge Herbicidal Activity ECHCG ([6]; 250 g ai/ha): 95
Post-emerge Herbicidal Activity AMARE ([7]; 63 g ai/ha): 100
Post-emerge Herbicidal Activity AMARE ([7]; 250 g ai/ha): 100
Post-emerge Herbicidal Activity ABUTH ([8]; 63 g ai/ha): 100
Post-emerge Herbicidal Activity ABUTH ([8]; 250 g ai/ha): 100
Post-emerge Herbicidal Activity CASOB ([9]; 63 g ai/ha): 100
Post-emerge Herbicidal Activity CASOB ([9]; 250 g ai/ha): 100
Post-emerge Herbicidal Activity CHEAL ([10]; 63 g ai/ha): 99
Post-emerge Herbicidal Activity CHEAL ([10]; 250 g ai/ha): 100
Post-emerge Herbicidal Activity AMBEL ([11]; 63 g ai/ha): 100
Post-emerge Herbicidal Activity AMBEL ([11]; 250 g ai/ha): 100
Post-emerge Herbicidal Activity SORHA ([12]; 63 g ai/ha): 60
Post-emerge Herbicidal Activity SORHA ([12]; 250 g ai/ha): 90
Pre-emerge crop damage RICE (phytotoxicity rating, scale 0-100) ([13]; 63 g ai/ha): 90
Pre-emerge crop damage RICE (phytotoxicity rating, scale 0-100) ([13]; 250 g ai/ha): 99
Pre-emerge crop damage CORN (phytotoxicity rating, scale 0-100) ([14]; 63 g ai/ha): 95
Pre-emerge crop damage CORN (phytotoxicity rating, scale 0-100) ([14]; 250 g ai/ha): 98
Pre-emerge Herbicidal Activity AMARE (phytotoxicity rating, scale 0-100) ([15]; 63 g ai/ha): 100
Pre-emerge Herbicidal Activity AMARE (phytotoxicity rating, scale 0-100) ([15]; 250 g ai/ha): 100
Pre-emerge Herbicidal Activity DIGSA (phytotoxicity rating, scale 0-100) ([16]; 63 g ai/ha): 100
Pre-emerge Herbicidal Activity DIGSA (phytotoxicity rating, scale 0-100) ([16]; 250 g ai/ha): 100
Pre-emerge Herbicidal Activity IPOHE (phytotoxicity rating, scale 0-100) ([17]; 63 g ai/ha): 100
Pre-emerge Herbicidal Activity IPOHE (phytotoxicity rating, scale 0-100) ([17]; 250 g ai/ha): 100
Pre-emerge Herbicidal Activity SETVI (phytotoxicity rating, scale 0-100) ([18]; 63 g ai/ha): 100
Pre-emerge Herbicidal Activity SETVI (phytotoxicity rating, scale 0-100) ([18]; 250 g ai/ha): 100
Pre-emerge Herbicidal Activity ECHCG (phytotoxicity rating, scale 0-100) ([19]; 63 g ai/ha): 95
Pre-emerge Herbicidal Activity ECHCG (phytotoxicity rating, scale 0-100) ([19]; 250 g ai/ha): 100
Pre-emerge Herbicidal Activity ABUTH (phytotoxicity rating, scale 0-100) ([20]; 63 g ai/ha): 100
Pre-emerge Herbicidal Activity ABUTH (phytotoxicity rating, scale 0-100) ([20]; 250 g ai/ha): 100
Pre-emerge Herbicidal Activity CASOB (phytotoxicity rating, scale 0-100) ([21]; 63 g ai/ha): 90
Pre-emerge Herbicidal Activity CASOB (phytotoxicity rating, scale 0-100) ([21]; 250 g ai/ha): 100
Pre-emerge Herbicidal Activity CHEAL (phytotoxicity rating, scale 0-100) ([22]; 63 g ai/ha): 100
Pre-emerge Herbicidal Activity CHEAL (phytotoxicity rating, scale 0-100) ([22]; 250 g ai/ha): 100
Pre-emerge Herbicidal Activity AMBEL (phytotoxicity rating, scale 0-100) ([23]; 63 g ai/ha): 100
Pre-emerge Herbicidal Activity AMBEL (phytotoxicity rating, scale 0-100) ([23]; 250 g ai/ha): 100
Pre-emerge Herbicidal Activity SORHA (phytotoxicity rating, scale 0-100) ([24]; 63 g ai/ha): 95
Pre-emerge Herbicidal Activity SORHA (phytotoxicity rating, scale 0-100) ([24]; 250 g ai/ha): 100
